Literature values as cited in US9289396B2, “Collagen-based implants for sustained delivery of drugs” (Euclid Systems Corporation, priority 2010, dated 2016).

Key:
[1] = in phosphate buffer

C[C@H]1C[C@H]2[C@@H]3CCC4=CC(=O)C=C[C@]4(C)[C@@]3(F)[C@@H](O)C[C@]2(C)[C@@]1(O)C(=O)CO [betamethasone]
Approx. Solubility in water: 0.5 µg/mL

CC(C)OC(=O)CCC/C=C\C[C@@H]1[C@@H](/C=C/[C@@H](O)COc2cccc(C(F)(F)F)c2)[C@H](O)C[C@@H]1O [travoprost]
Approx. Solubility in water: 8 µg/mL

CC(C)OC(=O)CCC/C=C\C[C@@H]1[C@@H](CC[C@@H](O)CCc2ccccc2)[C@H](O)C[C@@H]1O [latanoprost, 13,14-dihydro-17-phenyl-18,19,20-trinor-prostaglandin F2a-1-isopropyl ester]
aqueous solubility [1]: about 50 μg/mL

CN(CCCCCCCCCCN(C)C(=O)Oc1cccc([N+](C)(C)C)c1)C(=O)Oc1cccc([N+](C)(C)C)c1 [demecarium]
Approx. Solubility in water: 0.1 µg/mL

CNCC(O)c1ccc(OC(=O)C(C)(C)C)c(OC(=O)C(C)(C)C)c1 (stereo not shown) [dipivefrin]
Approx. Solubility in water: 58 µg/mL

CC(C(=O)O)c1ccc(C(=O)c2cccs2)cc1 (stereo not shown) [suprofen]
Approx. Solubility in water: 40 µg/mL

CN1CCC(=C2c3ccccc3CC(=O)c3sccc32)CC1 [ketotifen]
Approx. Solubility in water: 8 µg/mL

CCNC(=O)CCC/C=C\C[C@@H]1[C@@H](/C=C/[C@@H](O)CCc2ccccc2)[C@H](O)C[C@@H]1O [bimatoprost]
Approx. Solubility in water: 20 µg/mL

NC(=O)Cc1cccc(C(=O)c2ccccc2)c1N [nepafenac]
Approx. Solubility in water: 20 µg/mL

CCOC(=O)O[C@]1(C(=O)OCCl)CC[C@H]2[C@@H]3CCC4=CC(=O)C=C[C@]4(C)[C@H]3[C@@H](O)C[C@@]21C [loteprednol etabonate]
Approx. Solubility in water: 7 µg/mL
